# Laboratory results from PubChem BioAssay AID2060506 (Molecular Pharmacology Branch, DTP, NCI, 2025).
# Tested on: 598228-144-R-J1-PDC complex spheroid viability
# Assay: Anticancer human tumor 598228-144-R-J1-PDC patient-derived serous endometrial adenocarcinoma cell line growth inhibition [GQUAD]
# Conditions: for IC50: curve of first compound; for viability, T/C: stronger effect = lower value
# Source text: DNA G-quadruplex Stabilizer Agents in Combinations in Complex Spheroids
# A high-throughput screen of multi-cell type tumor spheroids was designed to identify active combinations of DNA G-quadruplex stabilizer agents and targeted small molecules. Complex spheroids include a stromal component modeled by human endothelial cells (HUVEC) and fibroblasts modeled by human mesenchymal stem cells (MSCs). The concentration ranges selected for each drug and investigational agent were based upon clinically achievable concentrations if the clinical Cmax of the agent was known.
# Compounds. The drugs and investigational agents: pidnarulex (CX-5461; NSC782164), APTO-253 (NSC789042), BRACO-19 (NSC847499), peposertib (NSC802822), ceralasertib (NSC780249), elimusertib (NSC800525), camonsertib (NSC841442), AZD-1390 (NSC803789), olaparib (NSC753686), talazoparib (NSC767125), ART-558 (NSC835418), sotorasib (NSC818433), MRTX-1133 (NSC836407), SN-38 (NSC673596), topotecan (NSC609699), etoposide (NSC141540), doxorubicin (NSC123127), gemcitabine (NSC613327), 5-fluorouracil (NSC19893), paclitaxel (NSC125973), vemurafenib (NSC761431), panobinostat (NSC761190), R-306465 (JNJ-16241199; NSC773264), adavosertib (NSC754352), TP-3654 (NSC805149), carboplatin (NSC241240), KSQ-4279 (NSC840948), and staurosporine (NSC755774) were obtained from the National Cancer Institute (NCI) Developmental Therapeutics Program Chemical Repository (34). The FDA-approved anticancer drug set is available from the NCI Developmental Therapeutics Program. […] The stock solutions were prepared in dimethyl sulfoxide (DMSO, Sigma-Aldrich, St. Louis, MO, cat. D2650) at 800-fold the tested concentration and stored at -70 degrees C prior to their use. All drugs and investigational agents were tested over a range starting from a high concentration at or near the clinical Cmax and decreasing in half-log increments. If the clinical Cmax for an agent had not been determined, the highest concentration tested was 10 microM.
# 2.3 Cell Culture. All cells were maintained in an incubator at 37 degrees C and 5% CO2 with 95% humidity. The PDC lines were cultured according to standard operating procedures established by the NCI PDMR. All PDCs were thawed and cultured in Matrigel-coated flasks prepared with a working solution of 1X Ham's F-12 nutrient mix, without supplementation (Invitrogen, cat. 11765054), 100 U/mL penicillin-streptomycin (Invitrogen, cat. 15140122), and 2.5% Matrigel (Corning Inc., cat. 354248) for the first three passages. The 857933-349-R-J2-PDC line was cultured in 6C/Colon 1B media, which includes advanced DMEM/F-12 (Thermo Fisher Scientific, cat. 12634028), 10 mM HEPES (Thermo Fisher Scientific, cat. 15630080), 1X GlutaMAX supplement (Thermo Fisher Scientific, cat. 35050061), 0.1 mg/mL primocin (InvivoGen, cat. ant-pm-2), 10% defined fetal bovine serum, heat inactivated (HyClone Laboratories Inc., cat. SH30070.03HI), 50% L-WRN conditioned media (ATCC, cat. CRL-3276), 1.25 mM N-Acetyl-L-cysteine (Sigma-Aldrich, cat. A9165), 10 mM nicotinamide (Sigma-Aldrich, cat. N0636), 1X B-27 supplement (Thermo Fisher Scientific, cat. 17504044), 1X N-2 supplement (Thermo Fisher Scientific, cat. 17502048), 10 microM Y-27632 dihydrochloride (Tocris Bioscience, cat. 1254), and 50 ng/mL human EGF recombinant protein (Thermo Fisher Scientific, cat. PHG0311). The 485176-168-R4-J1-PDC line was cultured in Panc media, which includes all 6C/Colon 1B media components plus 100 ng/mL human FGF-10 (Thermo Fisher Scientific, cat. 100-26), 500 nM SB-431542 (Selleckchem, cat. S1067), and gastrin (Tocris, cat. 3006).
# […]
# [1] = second compound 0.0316 µM, first compound 0.0316 µM
# [2] = second compound 0.0316 µM, first compound 0.316 µM
# [3] = second compound 0.1 µM, first compound 0.0316 µM
# [4] = second compound 0.1 µM, first compound 0.316 µM
# [5] = second compound 0.316 µM, first compound 0.0316 µM
# [6] = second compound 0.316 µM, first compound 0.316 µM
# [7] = second compound 1 µM, first compound 0.0316 µM
# [8] = second compound 1 µM, first compound 0.316 µM
# [9] = second compound 3.16 µM, first compound 0.0316 µM
# [10] = second compound 3.16 µM, first compound 0.316 µM
# [11] = second compound 10 µM, first compound 0.0316 µM
# [12] = second compound 10 µM, first compound 0.316 µM
# 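Further: spheroids exposed to the agents for one week before reading.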
# 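Wherever viability, T/C is given: percent of vehicle DMSO control viability so 100% = untreated growth.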
compound,measurement,setting,value
Cn1ncnc1[C@H]1c2n[nH]c(=O)c3cc(F)cc(c23)N[C@@H]1c1ccc(F)cc1 + CN(C)c1ccc(Nc2c3ccc(NC(=O)CCN4CCCC4)cc3nc3cc(NC(=O)CCN4CCCC4)ccc23)cc1,IC50,second compound 0.0316 µM,> 0.316 µM
same,IC50,second compound 0.1 µM,> 0.316 µM
same,IC50,second compound 0.316 µM,> 0.316 µM
same,IC50,second compound 1 µM,> 0.316 µM
same,IC50,second compound 3.16 µM,> 0.316 µM
same,IC50,second compound 10 µM,> 0.316 µM
same,"viability, T/C","second compound 0.0316 µM, first compound 0.000999 µM",118%
same,"viability, T/C","second compound 0.0316 µM, first compound 0.00316 µM",93.2%
same,"viability, T/C","second compound 0.0316 µM, first compound 0.00999 µM",103%
same,"viability, T/C",[1],86.3%
same,"viability, T/C","second compound 0.0316 µM, first compound 0.0999 µM",80.8%
same,"viability, T/C",[2],76.8%
same,"viability, T/C","second compound 0.1 µM, first compound 0.000999 µM",104%
same,"viability, T/C","second compound 0.1 µM, first compound 0.00316 µM",97.5%
same,"viability, T/C","second compound 0.1 µM, first compound 0.00999 µM",100%
same,"viability, T/C",[3],80.8%
same,"viability, T/C","second compound 0.1 µM, first compound 0.0999 µM",87.8%
same,"viability, T/C",[4],76.2%
same,"viability, T/C","second compound 0.316 µM, first compound 0.000999 µM",106%
same,"viability, T/C","second compound 0.316 µM, first compound 0.00316 µM",108%
same,"viability, T/C","second compound 0.316 µM, first compound 0.00999 µM",100%
same,"viability, T/C",[5],106%
same,"viability, T/C","second compound 0.316 µM, first compound 0.0999 µM",87.6%
same,"viability, T/C",[6],62%
same,"viability, T/C","second compound 1 µM, first compound 0.000999 µM",101%
same,"viability, T/C","second compound 1 µM, first compound 0.00316 µM",97.3%
same,"viability, T/C","second compound 1 µM, first compound 0.00999 µM",114%
same,"viability, T/C",[7],110%
same,"viability, T/C","second compound 1 µM, first compound 0.0999 µM",95.7%
same,"viability, T/C",[8],81.2%
same,"viability, T/C","second compound 3.16 µM, first compound 0.000999 µM",112%
same,"viability, T/C","second compound 3.16 µM, first compound 0.00316 µM",112%
same,"viability, T/C","second compound 3.16 µM, first compound 0.00999 µM",91.8%
same,"viability, T/C",[9],80.7%
same,"viability, T/C","second compound 3.16 µM, first compound 0.0999 µM",93.1%
same,"viability, T/C",[10],69.8%
same,"viability, T/C","second compound 10 µM, first compound 0.000999 µM",91.7%
same,"viability, T/C","second compound 10 µM, first compound 0.00316 µM",86.3%
same,"viability, T/C","second compound 10 µM, first compound 0.00999 µM",96.2%
same,"viability, T/C",[11],68.7%
same,"viability, T/C","second compound 10 µM, first compound 0.0999 µM",73.2%
same,"viability, T/C",[12],53.7%
O=C(c1cc(Cc2n[nH]c(=O)c3ccccc23)ccc1F)N1CCN(C(=O)C2CC2)CC1 + CN(C)c1ccc(Nc2c3ccc(NC(=O)CCN4CCCC4)cc3nc3cc(NC(=O)CCN4CCCC4)ccc23)cc1,IC50,second compound 0.0316 µM,> 10 µM
same,IC50,second compound 0.1 µM,> 10 µM
same,IC50,second compound 0.316 µM,> 10 µM
same,IC50,second compound 1 µM,> 10 µM
same,IC50,second compound 3.16 µM,> 10 µM
same,IC50,second compound 10 µM,> 10 µM
same,"viability, T/C",[1],84.9%
same,"viability, T/C","second compound 0.0316 µM, first compound 0.1 µM",92.6%
same,"viability, T/C",[2],79.7%
same,"viability, T/C","second compound 0.0316 µM, first compound 1 µM",92.9%
same,"viability, T/C","second compound 0.0316 µM, first compound 3.16 µM",95%
same,"viability, T/C","second compound 0.0316 µM, first compound 10 µM",75.8%
same,"viability, T/C",[3],110%
same,"viability, T/C","second compound 0.1 µM, first compound 0.1 µM",101%
same,"viability, T/C",[4],91%
same,"viability, T/C","second compound 0.1 µM, first compound 1 µM",84.4%
same,"viability, T/C","second compound 0.1 µM, first compound 3.16 µM",87.2%
same,"viability, T/C","second compound 0.1 µM, first compound 10 µM",75.1%
same,"viability, T/C",[5],98%
same,"viability, T/C","second compound 0.316 µM, first compound 0.1 µM",85.3%
same,"viability, T/C",[6],96.6%
same,"viability, T/C","second compound 0.316 µM, first compound 1 µM",91.1%
same,"viability, T/C","second compound 0.316 µM, first compound 3.16 µM",93.9%
same,"viability, T/C","second compound 0.316 µM, first compound 10 µM",65.9%
same,"viability, T/C",[7],82.5%
same,"viability, T/C","second compound 1 µM, first compound 0.1 µM",93.9%
same,"viability, T/C",[8],103%
same,"viability, T/C","second compound 1 µM, first compound 1 µM",87.5%
same,"viability, T/C","second compound 1 µM, first compound 3.16 µM",87.4%
same,"viability, T/C","second compound 1 µM, first compound 10 µM",54.1%
same,"viability, T/C",[9],98.8%
same,"viability, T/C","second compound 3.16 µM, first compound 0.1 µM",91.8%
same,"viability, T/C",[10],92.8%
same,"viability, T/C","second compound 3.16 µM, first compound 1 µM",88.3%
same,"viability, T/C","second compound 3.16 µM, first compound 3.16 µM",92.9%
same,"viability, T/C","second compound 3.16 µM, first compound 10 µM",68.3%
same,"viability, T/C",[11],76.4%
same,"viability, T/C","second compound 10 µM, first compound 0.1 µM",89.3%
same,"viability, T/C",[12],91.9%
same,"viability, T/C","second compound 10 µM, first compound 1 µM",73.8%
same,"viability, T/C","second compound 10 µM, first compound 3.16 µM",89.7%
same,"viability, T/C","second compound 10 µM, first compound 10 µM",50.3%
